The results in this text go back to US20140249573A1, “METHODS AND DEVICES FOR OCCLUDING BLOOD FLOW TO AN ORGAN” (A.A. CASH TECHNOLOGY LTD., priority 2011, published 2014).

The test system of data set [1] is ovary. Conditions: eight days after treatment. Here is the method: (§1) The protocol and design of all parts of this study were approved by the Animal Research Ethics Committee of Israel. Three female pigs (The Institute of Animal Research, Kibbutz Lahav, Israel) weighing 60 Kg each, were anesthetized with 10 mg/kg intramuscular ketamine hydrochloride and 4 mg/kg xylazine hydrochloride (Vetmarket, Israel). One ovary of each pig was exposed by a longitudinal midline incision. A conventional gastric band (Lap-band; Allergen, Irvine, Calif., USA) was modified according to some embodiments of the invention, to occlude blood flow to the ovaries. The band was wound around the ovarian hilum, and a zip tie was placed on the center of the band ring to reduce the diameter of the band's aperture. 10 ml saline was injected via the band's port thus completely blocking blood flow through the ovarian and uterine arteries and veins. The color and the morphology of the ovary were observed after occlusion of blood flow as well as after the bands were released. The other ovary in each pig was left unprotected (i.e. was left with natural blood flow, and thus completely exposed to chemotherapy). Heparin was administered intravenously before occlusion to prevent or reduce blood coagulation within the ovary throughout the occlusion time interval and a few hours thereafter. A control pig was left untreated.
The ovaries blood supply was occluded for 16 hours after the drug administration interval (i.e. a total occlusion time interval exceeding 17 hours). The bands were then opened by drawing out the 10 ml of saline via the port.
Eight days after the chemo treatment the pigs were euthanized according to animal ethics procedures and the ovaries were removed and examined visually, removed, weighed and follicles were counted.

Data set [2] concerns lymphocyte. To be noted: three female pigs, 60 mg/kg IV over 1 hour, the following day. Here is the method: as §1, with “untreated. […]” for “untreated.”

“And” between values parts separate entries of the source, which are not always exact repeats. Identical values can stand only once.

For `O=P1(N(CCCl)CCCl)NCCCO1` (stereo not shown) [Cyclophosphamide], the “size and number of follicles of occluded (protected) ovaries” value in data set [1] (all ovaries occluded during chemotherapy administration) is on record as “comparable to the control animal”. For the same compound, the “Weight of ovary, Occluded” value in data set [1] (ovary with blood supply occluded by band for more than 17 hours, 60 mg/kg IV over 1 hour, one value per pig, 60 mg/kg) was 3.6 gr and 3.8 gr and 5.2 gr. The “visual appearance of unprotected ovaries” value in data set [1] (unprotected ovaries, in two of the three animals) was “visible signs of atrophy”. Besides, the “lymphocyte counts, decreased to % of the initial level” value in data set [2] is listed as 12%.
